Experimental data from US6437184B1, “Oxime compounds, their use, and intermediates for their production” (Sumitomo Chemical Company, Limited, priority 1997, dated 2002).
Where two headings read alike, the source gives them in different places.

Assays:
Type in all cases: in vivo
[1] = system: Plutella xylostella; assay: Insecticidal test against Plutella xylostella; conditions: 96 h
Protocol: To a water dilution (50 ppm) of a test compound formulation obtained according to Formulation Example 1 was added a spreading agent (New RINOU available from Nihon Noyaku K.K.) at a dilution ratio of 3000-fold. The dilution was sprayed over potted cabbages at the four to five leaf stage at a volume of 25 ml per pot. After the treated plants were air dried, ten third-instar larvae of Plutella xylostella were set free on each pot. After 4 days, the mortality was determined.

[2] = system: Helicoverpa armigera; assay: Insecticidal test against Helicoverpa armigera; conditions: 120 h, 100 ppm water dilution, cotton leaf fragment immersed 10 seconds, third-instar larvae, after 5 days
Protocol: A cotton leaf fragment (diameter, 5 cm) was immersed for 10 seconds Lin a water dilution (100 ppm) of a test compound formulation obtained according to Formulation Example 1. This fragment was taken out from the dilution, air dried, and placed in a polyethylene cup having a diameter of 5.5 cm. One third-instar larva of Helicoverpa armigera was set free in each cup. Ten larvae were used for each treatment. After 5 days, the mortality of the larvae was determined.

[3] = system: Cydia pomonella; assay: Insecticidal test against Cydia pomonella; conditions: 168 h, 100 ppm water dilution, 0.2 ml on surface of artificial diet, eggs just before hatching, after 7 days
Protocol: A water dilution (100 ppm) of a test compound formulation obtained according to Formulation Example 1 was added dropwise at a volume of 0.2 ml and spread over the surface of an artificial diet having a weight of 3 g, which had been prepared in a 30 ml polyethylene cup. After air drying, placed in the cup was a piece of wax paper (about 2.5 cm square) having about 20 eggs which had been laid by Cydia pomonella and were just before hatching. Four pieces of such wax paper were used for each treatment. After 7 days, the mortality of the larvae was determined.

[4] = system: Musca domestica; assay: Insecticidal test against Musca domestica; conditions: 24 h
Protocol: In the bottom of a polyethylene cup having a diameter of 5.5 cm was placed a piece of filter paper having the same size. A 200-fold water dilution (500 ppm) of a test compound formulation obtained according to Formulation Example 1 was added dropwise at a volume of 0.7 ml on the filter paper, and about 30 mg of sucrose as a diet was uniformly placed thereon. Ten female adults of houseflies (Musca domestica) were set free in the cup, and the cup was kept covered. After 1 day, the survival of the adults was determined to determine the mortality.

[5] = 50 ppm water dilution sprayed over potted cabbages, 25 ml per pot, third-instar larvae, after 4 days, read-out: mortality

How did the mortality at 50 µg/mL [1, 5] turn out when FC(F)(F)c1ccc(C=NOCCCOc2c(Cl)cc(OCC=C(Cl)Cl)cc2Cl)cc1 [(524), 4-(trifluoromethyl)benzaldehyde O-(3-(2,6-dichloro-4-(3,3-dichloro-2-propenyloxy)phenoxy)propyl)oxime] was run?
The mortality at 50 µg/mL was no less than 80%.

For CC(C)(C)ON=Cc1ccc(OCCCOc2c(Cl)cc(OCC=C(Cl)Cl)cc2Cl)cc1 [(291), 4-(3-(2,6-dichloro-4-(3,3-dichloro-2-propenyloxy)phenoxy)propyloxy)benzaldehyde O-t-butyloxime], which mortality at 100 µg/mL [2] is on record?
Its mortality at 100 µg/mL is no less than 80%.

Which mortality at 100 µg/mL [3] does the source give for ClC(Cl)=CCOc1cc(Cl)c(OCCCCCON=C2CCOCC2)c(Cl)c1 [(574), tetrahydro-4H-pyran-4-one O-(5-(2,6-dichloro-4-(3,3-dichloro-2-propenyloxy)phenoxy)pentyl)oxime] here?
Its mortality at 100 µg/mL is no less than 80%.

And the mortality at 50 µg/mL [1, 5]?
Its mortality at 50 µg/mL is no less than 80%.

How did the mortality at 100 µg/mL [3] turn out when CC(C)Oc1ccc(C=NOCCCCOc2c(Cl)cc(OCC=C(Cl)Cl)cc2Cl)cc1 [(579), 4-isopropoxybenzaldehyde O-(4-(2,6-dichloro-4-(3,3-dichloro-2-propenyloxy)phenoxy)butyl)oxime] was run?
Its mortality at 100 µg/mL is no less than 80%.

Which mortality at 50 µg/mL [1, 5] does the source give for ClC(Cl)=CCON=Cc1ccc(OCCOc2c(Cl)cc(OCC=C(Cl)Cl)cc2Cl)cc1 [(281), 4-(2-(2,6-dichloro-4-(3,3-dichloro-2-propenyloxy)phenoxy)-ethoxy)benzaldehyde O-(3,3-dichloro-2-propenyl)oxime] here?
Its mortality at 50 µg/mL is no less than 80%.

C=CCON=Cc1ccc(CCOc2c(Cl)cc(OCC=C(Cl)Cl)cc2Cl)cc1 [(357), 4-(2-(2,6-dichloro-4-(3,3-dichloro-2-propenyloxy)phenoxy)ethyl)benzaldehyde O-allyloxime] was tested. Which mortality at 100 µg/mL [2] did it give?
The mortality at 100 µg/mL was no less than 80%.

For CC(C)CON=Cc1ccc(CCCOc2c(Cl)cc(OCC=C(Cl)Cl)cc2Cl)cc1 [(382), 4-(3-(2,6-dichloro-4-(3,3-dichloro-2-propenyloxy)phenoxy)propyl)benzaldehyde O-iso-butyloxime], which mortality at 100 µg/mL [3] is on record?
Its mortality at 100 µg/mL is no less than 80%.

With O=[N+]([O-])c1ccc(C=NOCCCCOc2c(Cl)cc(OCC=C(Cl)Cl)cc2Cl)cc1 [(578), 4-nitrobenzaldehyde O-(4-(2,6-dichloro-4-(3,3-dichloro-2-propenyloxy)phenoxy)butyl)oxime] as the compound, how does the mortality at 100 µg/mL [3] read?
Its mortality at 100 µg/mL is no less than 80%.

With CC(=NOC(C)(C)C)c1ccc(OCCCOc2c(Cl)cc(OCC=C(Cl)Cl)cc2Cl)cc1 [(294), 4′-(3-(2,6-dichloro-4-(3,3-dichloro-2-propenyloxy)phenoxy)propyloxy)acetophenone O-tert-butyloxime] as the compound, how does the mortality at 100 µg/mL [3] read?
The mortality at 100 µg/mL was no less than 80%.

How did the mortality at 50 µg/mL [1, 5] turn out when CCCCC(=NO)c1cccc(OCCCOc2c(Cl)cc(OCC=C(Cl)Cl)cc2Cl)c1 [(336), 3′-(3-(2,6-dichloro-4-(3,3-dichloro-2-propenyloxy)phenoxy)propyloxy)valerophenone oxime] was run?
The mortality at 50 µg/mL was no less than 80%.

With CCC(C)ON=Cc1ccc(CCOc2c(Cl)cc(OCC=C(Cl)Cl)cc2Cl)cc1 (centres unmarked) [(355), 4-(2-(2,6-dichloro-4-(3,3-dichloro-2-propenyloxy)phenoxy)ethyl)benzaldehyde O-sec-butyloxime] as the compound, how does the mortality at 100 µg/mL [2] read?
Its mortality at 100 µg/mL is no less than 80%.

Which mortality at 100 µg/mL [3] does the source give for CC(C)CON=Cc1cccc(COc2c(Cl)cc(OCC=C(Cl)Cl)cc2Cl)c1 [(381), 3-((2,6-dichloro-4-(3,3-dichloro-2-propenyloxy)phenoxy)methyl)benzaldehyde O-iso-butyloxime] here?
The mortality at 100 µg/mL was no less than 80%.

Which mortality at 100 µg/mL [2] does the source give for CCC(C)ON=Cc1ccc(COc2c(Cl)cc(OCC=C(Cl)Cl)cc2Cl)cc1 (centres unmarked) [(329), 4-(2,6-dichloro-4-(3,3-dichloro-2-propenyloxy)phenoxy)methylbenzaldehyde O-sec-butyloxime] here?
The mortality at 100 µg/mL was no less than 80%.

How did the mortality at 100 µg/mL [3] turn out when ClC(Cl)=CCOc1cc(Cl)c(OCCCC=NOCC=C(Br)Br)c(Cl)c1 [(25), 4-(2,6-dichloro-4-(3,3-dichloro-2-propenyloxy)phenoxy)butanal O-(3,3-dibromo-2-propenyl)oxime] was run?
The mortality at 100 µg/mL was no less than 80%.

Which mortality at 100 µg/mL [2] does the source give for ClC(Cl)=CCON=CCCCCOc1c(Cl)cc(OCC=C(Cl)Cl)cc1Cl [(17), 5-(2,6-dichloro-4-(3,3-dichloro-2-propenyloxy)phenoxy)pentanal O-(3,3-dichloro-2-propenyl)oxime] here?
The mortality at 100 µg/mL was no less than 80%.

With CC(CC(C)C)=NOCCCCCOc1c(Cl)cc(OCC=C(Cl)Cl)cc1Cl [(564), 4-methyl-2-pentanone O-(5-(2,6-dichloro-4-(3,3-dichloro-2-propenyloxy)phenoxy)pentyl)oxime] as the compound, how does the mortality at 100 µg/mL [2] read?
Its mortality at 100 µg/mL is no less than 80%.

How did the mortality at 100 µg/mL [2] turn out when CC(=NOCCCCOc1c(Cl)cc(OCC=C(Cl)Cl)cc1Cl)C(C)(C)C [(562), 3,3-dimethyl-2-butanone O-(4-(2,6-dichloro-4-(3,3-dichloro-2-propenyloxy)phenoxy)butyl)oxime] was run?
The mortality at 100 µg/mL was no less than 80%.

CC(=NOCCCCOc1c(Cl)cc(OCC=C(Cl)Cl)cc1Cl)c1ccc(C(F)(F)F)cc1 [(531), 4′-(trifluoromethyl)acetophenone O-(4-(2,6-dichloro-4-(3,3-dichloro-2-propenyloxy)phenoxy)butyl)oxime] was tested. Which mortality at 100 µg/mL [2] did it give?
Its mortality at 100 µg/mL is no less than 80%.

How did the mortality at 50 µg/mL [1, 5] turn out when ClC(Cl)=CCON=CCCOc1c(Cl)cc(OCC=C(Cl)Cl)cc1Cl [(75), 3-(2,6-dichloro-4-(3,3-dichloro-2-propenyloxy)phenoxy)propionaldehyde O-(3,3-dichloro-2-propenyl)oxime] was run?
Its mortality at 50 µg/mL is no less than 80%.

With ClC(Cl)=CCOc1cc(Cl)c(OCCCCCCON=C2CCSCC2)c(Cl)c1 [(575), tetrahydrothiopyran-4-one O-(6-(2,6-dichloro-4-(3,3-dichloro-2-propenyloxy)phenoxy)hexyl)oxime] as the compound, how does the mortality at 100 µg/mL [3] read?
Its mortality at 100 µg/mL is no less than 80%.

With CC(=NOCC=C(Br)Br)c1ccc(OCCCCOc2c(Cl)cc(OCC=C(Cl)Cl)cc2Cl)cc1 [(300), 4′-(4-(2,6-dichloro-4-(3,3-dichloro-2-propenyloxy)phenoxy)butyloxy)acetophenone O-(3,3-dibromo-2-propenyl)oxime] as the compound, how does the mortality at 100 µg/mL [3] read?
The mortality at 100 µg/mL was no less than 80%.

For CON=Cc1ccc(CCCOc2c(Cl)cc(OCC=C(Cl)Cl)cc2Cl)cc1 [(365), 4-(3-(2,6-dichloro-4-(3,3-dichloro-2-propenyloxy)phenoxy)propyl)benzaldehyde O-methyloxime], which mortality at 100 µg/mL [3] is on record?
The mortality at 100 µg/mL was no less than 80%.

With ClC(Cl)=CCOc1cc(Cl)c(OCCCCON=C2CCOCC2)c(Cl)c1 [(573), tetrahydro-4H-pyran-4-one O-(4-(2,6-dichloro-4-(3,3-dichloro-2-propenyloxy)phenoxy)butyl)oxime] as the compound, how does the mortality at 50 µg/mL [1, 5] read?
The mortality at 50 µg/mL was no less than 80%.

With CCc1cc(OCC=C(Cl)Cl)cc(CC)c1OCCCCOCC=NOCC=C(Cl)Cl [(10), 4-(2,6-diethyl-4-(3,3-dichloro-2-propenyloxy)phenoxy)butyloxyacetaldehyde O-(3,3-dichloro-2-propenyl)oxime] as the compound, how does the mortality at 100 µg/mL [3] read?
The mortality at 100 µg/mL was no less than 80%.

CC(=NO)c1ccc(OCCCCCOc2c(Cl)cc(OCC=C(Cl)Cl)cc2Cl)cc1 [(334), 4′-(5-(2,6-dichloro-4-(3,3-dichloro-2-propenyloxy)phenoxy)-pentyloxy)acetophenone oxime] was tested. Which mortality at 50 µg/mL [1, 5] did it give?
The mortality at 50 µg/mL was no less than 80%.

How did the mortality at 100 µg/mL [3] turn out when ClC(Cl)=CCOc1cc(Cl)c(OCCCCCON=C2CCSCC2)c(Cl)c1 [(572), tetrahydrothiopyran-4-one O-(5-(2,6-dichloro-4-(3,3-dichloro-2-propenyloxy)phenoxy)pentyl)oxime] was run?
The mortality at 100 µg/mL was no less than 80%.

Which mortality at 50 µg/mL [1, 5] does the source give for ClC(Cl)=CCON=Cc1ccc(OCCCCOc2c(Cl)cc(OCC=C(Cl)Cl)cc2Cl)cc1 [(285), 4-(4-(2,6-dichloro-4-(3,3-dichloro-2-propenyloxy)phenoxy)butyloxy)benzaldehyde O-(3,3-dichloro-2-propenyl)oxime] here?
The mortality at 50 µg/mL was no less than 80%.

With CCON=Cc1cccc(COc2c(Cl)cc(OCC=C(Cl)Cl)cc2Cl)c1 [(378), 3-((2,6-dichloro-4-(3,3-dichloro-2-propenyloxy)phenoxy)methyl)benzaldehyde O-ethyloxime] as the compound, how does the mortality at 100 µg/mL [3] read?
The mortality at 100 µg/mL was no less than 80%.

And the mortality at 500 µg/mL ([4]; 500 ppm water dilution, 0.7 ml on filter paper with sucrose, female adults, after 1 day, read-out: mortality)?
The mortality at 500 µg/mL was no less than 80%.

With C=CCON=Cc1ccc(CCCOc2c(Cl)cc(OCC=C(Cl)Cl)cc2Cl)cc1 [(370), 4-(3-(2,6-dichloro-4-(3,3-dichloro-2-propenyloxy)phenoxy)propyl)benzaldehyde O-allyl oxime] as the compound, how does the mortality at 50 µg/mL [1, 5] read?
The mortality at 50 µg/mL was no less than 80%.

For FC(F)(F)c1ccc(C=NOCCOc2c(Cl)cc(OCC=C(Cl)Cl)cc2Cl)cc1 [(550), 4-(trifluoromethyl)benzaldehyde O-(2-(2,6-dichloro-4-(3,3-dichloro-2-propenyloxy)phenoxy)ethyl)oxime], which mortality at 100 µg/mL [3] is on record?
The mortality at 100 µg/mL was no less than 80%.

With ClC(Cl)=CCOc1cc(Cl)c(OCCCC=NOCc2ccccc2)c(Cl)c1 [(27), 4-(2,6-dichloro-4-(3,3-dichloro-2-propenyloxy)phenoxy)butanal O-benzyloxime] as the compound, how does the mortality at 100 µg/mL [3] read?
The mortality at 100 µg/mL was no less than 80%.

With CC(COCCCCCOc1c(Cl)cc(OCC=C(Cl)Cl)cc1Cl)=NOC(=O)NC(C)(C)C [(180), 5-(2,6-dichloro-4-(3,3-dichloro-2-propenyloxy)phenoxy)pentyloxyacetone O-(N-tert-butylcarbamoyl)oxime] as the compound, how does the mortality at 50 µg/mL [1] read?
The mortality at 50 µg/mL was no less than 80%.

And the mortality at 500 µg/mL [4]?
Its mortality at 500 µg/mL is no less than 80%.
